Legend:
Format in all cases: in vivo
[1] = tested on: Spodoptera litura; test: Insecticidal effect for Spodoptera litura by spraying treatment to host crop (Test Example 2); details: 100 ppm, sprayed on soybean, third-instar larvae of Spodoptera litura, fifth day after; for pest or weed control at 100 ppm: 120 h, read-out: rate of dead pests (%)
Description: Insecticidal Effect for Spodoptera litura by Spraying Treatment to Host Crop
A pesticidal solution, which was prepared by dissolving 5 mg of test compound (represented by the compound Nos. in the above Examples) in 0.5-ml of acetone containing Tween 20 (trade name) and then diluting it to the prescribed concentration (100 ppm) with Dain (trade name, sticker) water diluted 5000-fold, was sprayed on a soybean whose primary leaves had developed completely with spray gun in the amounts wherein the pesticidal solution dripped. After drying the pesticidal solution, two primary leaves were cut off. The leaves were put into an ice cream cup (180 ml), and ten third-instar larvae of Spodoptera litura were set free therein. The cup was left in a temperature-controlled breeding room (25° C.). On the fifth day after, the number of surviving Spodoptera litura was examined. The rate of dead pests was calculated by the following formula. rate of dead pests (%)=(number of dead pests/number of test pests)×100

[2] = tested on: Plutella xylostella; test: Insecticidal effect for Plutella xylostella by immersion treatment of host crop (Test Example 1); details: cabbage leaf dipped, second-instar larvae of Plutella xylostella, fifth day after; for rate of dead pests (%): 100 ppm; for pest or weed control at 100 ppm: foliar, 120 h, read-out: rate of dead pests (%)
Description: Insecticidal Effect for Plutella xylostella by Immersion Treatment of Host Crop One true leaf of 7 to 8-leave stage cabbage was cut off and dipped in a pesticidal solution for a few seconds, which was prepared by dissolving 5 mg of test compound (represented by the compound Nos. in the above Examples) in 0.5 ml of acetone containing Tween 20 (trade name) and then diluting it to the prescribed concentration (100 ppm) with Dain (trade name, sticker) water diluted 5000-fold. After drying the pesticidal solution, the leaf was put into an ice cream cup (180 ml), and ten second-instar larvae of Plutella xylostella were set free therein. The cup was left in a temperature-controlled breeding room (24° C.). On the fifth day after, the number of surviving Plutella xylostella was examined. The rate of dead pests was calculated by the following formula. rate of dead pests (%)=(number of dead pests/number of test pests)×100

[3] = tested on: Spodoptera litura; test: Insecticidal effect for Spodoptera litura by immersion treatment of host crop root (Test Example 4); details: 25 ppm, soybean root immersion 5 days, second-instar larvae of Spodoptera litura, fifth day after; for pest or weed control at 25 ppm: 120 h, read-out: rate of dead pests (%)
Description: Insecticidal Effect for Spodoptera litura by Immersion Treatment of Host Crop Root Roots of primary leaves developing stage soybean was washed with tap water to remove soil, and then immersed in a pesticidal solution which was prepared by dissolving 5 mg of test compound (represented by the compound Nos. in the above Examples) in 0.5 ml of acetone containing Tween 20 ([…]) with ion-exchange water, and which was filled in a light-shielded Erlenmeyer flask (100 ml). On the fifth day after immersion of root, two primary leaves were cut off, and the leaves were put into an ice cream cup (180 ml). Ten second-instar larvae of Spodoptera litura were set free therein, and the cup was left in a temperature-controlled breeding room (25° C.). On the fifth day after, the number of surviving Spodoptera litura was examined. The rate of dead pests was calculated by the following formula. rate of dead pests (%)=(number of dead pests/number of test pests)×100

Row | Structure (SMILES) | rate of dead pests (%) [1] [%] | rate of dead pests (%) [2] [%] | rate of dead pests (%) [3] [%] | other results
1 | O=C(c1c(F)cccc1F)N1COCN(c2ccc(SC(F)(F)C(F)F)cc2F)C1=O [I-22] | 100 | 100 |  | 
2 | O=C(c1c(F)cccc1F)N1COCN(c2ccc([S+]([O-])C(F)(F)F)c(F)c2F)C1=O (stereo not shown) [I-108] |  | 100 |  | 
3 | O=C(c1c(F)cccc1F)N1COCN(c2c(F)cc(SC(F)(F)F)c(F)c2F)C1=O [I-116] | 100 | 100 |  | 
4 | C[S+]([O-])c1ccc(N2COCN(C(=O)c3c(F)cccc3Cl)C2=O)c(F)c1 (stereo not shown) [I-206] |  | 100 | 100 | 
5 | O=C(c1c(F)cccc1Cl)N1COCN(c2ccc([S+]([O-])C(F)F)cc2F)C1=O (stereo not shown) [I-219] | 100 |  | 100 | 
6 | O=C(c1c(F)cccc1Cl)N1COCN(c2ccc([S+]([O-])C(F)(F)F)cc2Cl)C1=O (stereo not shown) [I-252] | 100 |  | 100 | 
7 | O=C(c1c(F)cccc1Cl)N1COCN(c2ccc([S+]([O-])C(F)(F)F)c(Cl)c2)C1=O (stereo not shown) [I-255] | 100 |  | 100 | 
8 | O=C(c1c(F)cccc1Cl)N1COCN(c2cc(Cl)c(SC(F)(F)F)cc2F)C1=O [I-275] | 100 |  | 100 | 
9 | O=C(c1c(F)cccc1Cl)N1COCN(c2c(F)cc(SC(F)(F)F)cc2Cl)C1=O [I-278] | 100 |  | 90 | 
10 | O=C(c1c(F)cccc1Cl)N1COCN(c2c(F)cc(SC(F)(F)F)cc2F)C1=O [I-281] | 100 |  | 100 | 
11 | O=C(c1c(F)cccc1Cl)N1COCN(c2cc(F)c([S+]([O-])C(F)(F)F)cc2F)C1=O (stereo not shown) [I-288] | 100 |  | 100 | 
12 | O=C(c1c(F)cccc1Cl)N1COCN(c2ccc([S+]([O-])C(F)(F)C(F)(F)F)cc2F)C1=O (stereo not shown) [I-306] | 100 |  | 100 | 
13 | O=C(c1c(F)cccc1Cl)N1COCN(c2ccc(S(=O)(=O)C(F)(F)C(F)(F)F)cc2F)C1=O [I-307] | 100 |  | 90 | 
14 | O=C(c1c(Cl)cccc1Cl)N1COCN(c2ccc(SC(F)(F)F)cc2F)C1=O [I-398] | 100 | 100 |  | 
15 | O=C(c1c(Cl)cccc1Cl)N1COCN(c2ccc([S+]([O-])C(F)(F)F)cc2F)C1=O (stereo not shown) [I-399] | 100 |  | 100 | 
16 | O=C(c1c(F)cccc1F)N1C[S+]([O-])CN(c2cc(Cl)c(F)c(Cl)c2F)C1=O (stereo not shown) [II-11] | 100 |  | 100 | 
17 | O=C(c1c(F)cccc1F)N1CSCN(c2ccc(SC(F)(F)C(F)Cl)cc2F)C1=O (stereo not shown) [II-19] |  | 100 |  | 
18 | O=C(c1c(F)cccc1F)N1CSCN(c2ccc([S+]([O-])C(F)(F)C(F)Cl)cc2F)C1=O (stereo not shown) [II-22] |  | 100 |  | 
19 | O=C(c1c(F)cccc1F)N1CN(c2ccccc2)CN(c2ccc(Cl)cc2)C1=O [III-2, 1-(4-chlorophenyl)-3-(2,6-difluorobenzoyl)-5-phenyltetrahydro-1,3,5-triazin-2(1H)-one] |  |  |  | pest or weed control at 25 ppm [3]: 90%; pest or weed control at 100 ppm [1]: 100%
20 | C#CCN1CN(C(=O)c2c(F)cccc2F)C(=O)N(c2ccc(Cl)cc2)C1 [III-8] | 100 |  | 100 | 
21 | CS(=O)(=O)N1CN(C(=O)c2c(F)cccc2F)C(=O)N(c2ccc(Cl)cc2)C1 [III-12, 1-(4-chlorophenyl)-3-(2,6-difluorobenzoyl)-5-methanesulfonyltetrahydro-1,3,5-triazin-2(1H)-one] |  |  |  | pest or weed control at 25 ppm [3]: 100%; pest or weed control at 100 ppm [1]: 100%

Row | Structure (SMILES) | rate of dead pests (%) [1] [%] | rate of dead pests (%) [2] [%] | rate of dead pests (%) [3] [%] | other results
22 | COC(=O)N1CN(C(=O)c2c(F)cccc2F)C(=O)N(c2ccc(Cl)cc2)C1 [III-13] | 100 |  | 100 | 
23 | C#CCN1CN(C(=O)c2c(F)cccc2F)C(=O)N(c2ccc(Oc3ccc(C(F)(F)F)cc3Cl)cc2F)C1 [III-23] | 100 | 100 |  | 
24 | CS(=O)(=O)N1CN(C(=O)c2c(F)cccc2F)C(=O)N(c2ccc(Oc3ccc(C(F)(F)F)cc3Cl)cc2F)C1 [III-26] | 100 | 100 |  | 
25 | COC(=O)N1CN(C(=O)c2c(F)cccc2F)C(=O)N(c2ccc(Oc3ccc(C(F)(F)F)cc3Cl)cc2F)C1 [III-28] | 100 | 100 |  | 
26 | CN(C)C(=O)C(=O)N1CN(C(=O)c2c(F)cccc2F)C(=O)N(c2ccc(Oc3ccc(C(F)(F)F)cc3Cl)cc2F)C1 [III-43, 2-[3-[4-(2-chloro-4-trifluoromethylphenoxy)-2-fluorophenyl]-5-(2,6-difluorobenzoyl)hexahydro-4-oxo-1,3,5-triazin-1-yl]-N,N-dimethyl-2-oxoacetamide] |  |  |  | pest or weed control at 100 ppm [1]: 100%; pest or weed control at 100 ppm [2]: 100%
27 | O=C(NOCc1ccccc1)C(=O)N1CN(C(=O)c2c(F)cccc2F)C(=O)N(c2ccc(Oc3ccc(C(F)(F)F)cc3Cl)cc2F)C1 [III-50] | 100 | 100 |  | 
28 | O=C(c1c(F)cccc1F)N1CN(c2ccccc2)CN(c2cc(Cl)c(F)c(Cl)c2F)C1=O [III-54] | 100 | 100 |  | 
29 | O=C(OCc1ccccc1)N1CN(C(=O)c2c(F)cccc2F)C(=O)N(c2cc(Cl)c(F)c(Cl)c2F)C1 [III-55, 5-benzyloxycarbonyl-1-(3,5-dichloro-2,4-difluorophenyl)-3-(2,6-difluorobenzoyl)tetrahydro-1,3,5-triazin-2(1H)-one] |  |  |  | pest or weed control at 100 ppm [1]: 100%; pest or weed control at 100 ppm [2]: 100%
30 | C=CCN1CN(C(=O)c2c(F)cccc2F)C(=O)N(c2cc(Cl)c(F)c(Cl)c2F)C1 [III-56] | 100 | 100 |  | 
31 | C#CCN1CN(C(=O)c2c(F)cccc2F)C(=O)N(c2cc(Cl)c(F)c(Cl)c2F)C1 [III-57] | 100 | 100 |  | 
32 | O=C(c1c(F)cccc1F)N1CN(Cc2ccccc2)CN(c2cc(Cl)c(F)c(Cl)c2F)C1=O [III-60] | 100 | 100 |  | 
33 | COC(=O)SN1CN(C(=O)c2c(F)cccc2F)C(=O)N(c2cc(Cl)c(F)c(Cl)c2F)C1 [III-62] | 100 | 100 |  | 
34 | Cc1ccc(S(=O)(=O)N2CN(C(=O)c3c(F)cccc3F)C(=O)N(c3cc(Cl)c(F)c(Cl)c3F)C2)cc1 [III-63] | 100 | 100 |  | 
35 | O=C(OCc1ccccc1)N1CN(C(=O)c2c(F)cccc2F)C(=O)N(c2cc(Cl)c(OC(F)(F)C(F)C(F)(F)F)cc2Cl)C1 (stereo not shown) [III-70] | 100 | 100 |  | 
36 | O=C(c1c(F)cccc1F)N1CNCN(c2cc(Cl)c(OC(F)(F)C(F)C(F)(F)F)cc2Cl)C1=O (stereo not shown) [III-71] | 100 | 100 |  | 
37 | COC(=O)C(=O)N1CN(C(=O)c2c(F)cccc2F)C(=O)N(c2cc(Cl)c(OC(F)(F)C(F)C(F)(F)F)cc2Cl)C1 (stereo not shown) [III-72] | 100 | 100 |  | 
38 | O=C(OCc1ccccc1)N1CN(C(=O)c2c(F)cccc2F)C(=O)N(c2ccc(SC(F)(F)C(F)Cl)cc2F)C1 (stereo not shown) [III-77] | 100 | 100 |  | 
39 | CN1CN(C(=O)c2c(F)cccc2F)C(=O)N(c2ccc(S(=O)(=O)C(F)F)cc2F)C1 [III-156, 1-(2,6-difluorobenzoyl)-3-[4-(difluoromethylsulfonyl)-2-fluorophenyl]-5-methyltetrahydro-1,3,5-triazin-2 (1H)-one] |  |  |  | pest or weed control at 100 ppm [1]: 100%; pest or weed control at 100 ppm [2]: 100%
40 | O=C(c1c(F)cccc1F)N1CN=CN(c2ccc(Cl)cc2)C1=O [V-1] | 100 |  | 100 | 
41 | O=C(c1c(F)cccc1F)N1CN=CN(c2ccc(Oc3ccc(C(F)(F)F)cc3Cl)cc2F)C1=O [V-3] | 100 | 100 |  | 
